Reference: US10104891B2 (priority 2014, dated 2018)

Legend:
Type in all cases: in vivo
[1] = test system: Phytophthora infestans; assay: whole plant or invertebrate; conditions: for control value (Test 1): tomato late blight, control value vs untreated section
[2] = test system: Pseudoperonospora cubensis; assay: Test 2: control effect against cucumber downy mildew; conditions: control value vs untreated section
Method: (§1) A 10% wettable powder created according to the Pharmaceutical Formulation Example 1 was diluted with a Tween20 solution prepared to a concentration of 1/5000, then the compound of formula [1] was prepared to a concentration of 4 ppm. Further, the compound of formula [1] in Test 4 was adjusted to a concentration of 1,000 ppm.
<Test 2 Test of Control Effect Against Cucumber Downy Mildew>
(§2) Test suspension was applied to cucumber at the 2 leaf stage (species: Sagami hanjiro) in an amount of 20 ml per seedling. One day after application, zoospore suspension of Pseudoperonospora cubensis adjusted to a concentration of 1.0×10^4 units/ml was misted/inoculated, and the seedlings were incubated in a moist chamber adjusted to 22° C. for 16 hr. Then, the onset of the disease was induced in the chamber, and the lesion area rate on the leaves 5 days after inoculation was investigated to compute the control value using the formula below. control value={1−onset area rate of the leaves that were applied the test agent/onset area rate of untreated leaves}×100 Computational formula of the control value: […]

[3] = test system: Plasmopara viticola; assay: Test 3: control effect against grape downy mildew; conditions: control value vs untreated section
Method: as §1
<Test 3 Test of Control Effect Against Grape Downy Mildew>
as §2, with “grape seedling” for “cucumber at the 2 leaf stage”, “Neomuscat)” for “Sagami hanjiro)”, “Plasmopara viticola” for “Pseudoperonospora cubensis”

**Q.** With CC(C)S(=O)(=O)Oc1cccc2c1COC(c1csc(C3CCN(C(=O)Cn4nc(C(F)(F)F)cc4C(F)(F)F)CC3)n1)OC2 (stereo not drawn) [Compound 1-67] as the compound, how does the “control value (Test 1)” value [1] read?
**A.** 100

**Q.** What about the “control value (Test 2)” value [2] of the same compound?
**A.** 100

**Q.** What about the “control value (Test 3)” value [3] of the same compound?
**A.** 100

**Q.** CS(=O)(=O)Oc1ccc(Br)c2c1COC(c1csc(C3CCN(C(=O)Cc4cc(Cl)ccc4Cl)CC3)n1)OC2 (stereo not drawn) [Compound 2-35] was tested. Which “control value (Test 1)” value [1] did it give?
**A.** 100

**Q.** And the “control value (Test 2)” value [2]?
**A.** 100

**Q.** And the “control value (Test 3)” value [3]?
**A.** 100

**Q.** Which “control value (Test 1)” value [1] does the source give for Cc1cc(OS(C)(=O)=O)c2c(c1C)COC(c1csc(C3CCN(C(=O)Cn4nc(C(F)(F)F)cc4C)CC3)n1)OC2 (stereo not drawn) [Compound 1-64] here?
**A.** 100

**Q.** What about the “control value (Test 2)” value [2] of the same compound?
**A.** 100

**Q.** And the “control value (Test 3)” value [3]?
**A.** 100

**Q.** For COc1cccc2c1COC(c1csc(C3CCN(C(=O)Cc4cc(Cl)ccc4Cl)CC3)n1)OC2 (stereo not drawn) [Compound 2-51], which “control value (Test 1)” value [1] is on record?
**A.** 100

**Q.** And the “control value (Test 2)” value [2]?
**A.** 100

**Q.** What about the “control value (Test 3)” value [3] of the same compound?
**A.** 100

**Q.** Which results are given for COc1ccc(Br)c2c1COC(c1csc(C3CCN(C(=O)Cn4nc(C(F)(F)F)cc4C)CC3)n1)OC2 (stereo not drawn) [Compound 1-24]?
**A.** control value (Test 1) [1]: 100; control value (Test 2) [2]: 100; control value (Test 3) [3]: 100

**Q.** Which pest or weed control at 4 µg/mL ([1]; Phytophthora infestans, in Solanum lycopersicum, 96 h, read-out: control value (Test 1)) does the source give for CS(=O)(=O)Oc1cccc2c1COC(c1csc(C3CCN(C(=O)Cn4nc(C(F)(F)F)cc4C(F)(F)F)CC3)n1)OC2 (stereo not drawn) [Compound 1-42, 4-[4-(6-methylsulfonyloxy-1,5-dihydro-3H-2,4-benzodioxepin-3-yl)-2-thiazolyl]-1-[2-[3,5-bis(trifluoromethyl)-1H-pyrazole-1-yl]acetyl]piperidine] here?
**A.** 100%

**Q.** And the pest or weed control at 4 µg/mL ([2]; Pseudoperonospora cubensis, 120 h)?
**A.** 100%

**Q.** What about the pest or weed control at 4 µg/mL ([3]; Plasmopara viticola, 120 h) of the same compound?
**A.** 100%

**Q.** For Cc1cc(C(F)(F)F)nn1CC(=O)N1CCC(c2nc(C3OCc4cccc(OC(F)F)c4CO3)cs2)CC1 (stereo not drawn) [Compound 1-94], which “control value (Test 1)” value [1] is on record?
**A.** 100

**Q.** What about the “control value (Test 2)” value [2] of the same compound?
**A.** 100

**Q.** What about the “control value (Test 3)” value [3] of the same compound?
**A.** 100

**Q.** Cc1cc(C(F)(F)F)nn1CC(=S)N1CCC(c2nc(C3OCc4cccc(OS(C)(=O)=O)c4CO3)cs2)CC1 (stereo not drawn) [Compound 1-106] was tested. Which “control value (Test 1)” value [1] did it give?
**A.** 100

**Q.** And the “control value (Test 2)” value [2]?
**A.** 100

**Q.** What about the “control value (Test 3)” value [3] of the same compound?
**A.** 100

**Q.** CCCCCCCCS(=O)(=O)Oc1cccc2c1COC(c1csc(C3CCN(C(=O)Cn4nc(C(F)(F)F)cc4C)CC3)n1)OC2 (stereo not drawn) [Compound 1-25] was tested. Which “control value (Test 1)” value [1] did it give?
**A.** 100

**Q.** And the “control value (Test 2)” value [2]?
**A.** 100

**Q.** What about the “control value (Test 3)” value [3] of the same compound?
**A.** 100

**Q.** Which “control value (Test 1)” value [1] does the source give for CS(=O)(=O)Oc1ccc([N+](=O)[O-])c2c1COC(c1csc(C3CCN(C(=O)Cn4nc(C(F)(F)F)cc4C(F)(F)F)CC3)n1)OC2 (stereo not drawn) [Compound 1-128] here?
**A.** 100

**Q.** And the “control value (Test 2)” value [2]?
**A.** 100

**Q.** What about the “control value (Test 3)” value [3] of the same compound?
**A.** 100

**Q.** Which results are given for COc1ccc(Br)c2c1COC(c1csc(C3CCN(C(=O)Cc4cc(C)ccc4C)CC3)n1)OC2 (stereo not drawn) [Compound 2-24]?
**A.** control value (Test 1) [1]: 100; control value (Test 2) [2]: 100; control value (Test 3) [3]: 100

**Q.** What does the source list for Cc1cc(C(F)(F)F)nn1CC(=O)N1CCC(c2nc(C3OCc4cccc(C=NN(C)C)c4CO3)cs2)CC1 (stereo not drawn) [Compound 1-71]?
**A.** control value (Test 1) [1]: 100; control value (Test 2) [2]: 100; control value (Test 3) [3]: 100

**Q.** How did the “control value (Test 1)” value [1] turn out when CS(=O)(=O)Oc1ccc(F)c2c1COC(c1csc(C3CCN(C(=O)Cn4nc(C(F)(F)F)cc4C(F)(F)F)CC3)n1)OC2 (stereo not drawn) [Compound 1-87] was run?
**A.** 100

**Q.** And the “control value (Test 2)” value [2]?
**A.** 100

**Q.** And the “control value (Test 3)” value [3]?
**A.** 100

**Q.** Cc1cc(C(F)F)nn1CC(=O)N1CCC(c2nc(C3OCc4c(F)ccc(OS(C)(=O)=O)c4CO3)cs2)CC1 (stereo not drawn) [Compound 1-153] was tested. Which “control value (Test 1)” value [1] did it give?
**A.** 100

**Q.** And the “control value (Test 2)” value [2]?
**A.** 100

**Q.** What about the “control value (Test 3)” value [3] of the same compound?
**A.** 100

**Q.** Which results are given for COc1ccc([N+](=O)[O-])c2c1COC(c1csc(C3CCN(C(=O)Cn4nc(C(F)(F)F)cc4C(F)(F)F)CC3)n1)OC2 (stereo not drawn) [Compound 1-83]?
**A.** control value (Test 1) [1]: 100; control value (Test 2) [2]: 100; control value (Test 3) [3]: 100

**Q.** Which results are given for Cc1ccc(C)c(CC(=O)N2CCC(c3nc(C4OCc5c(F)c(F)c(F)c(F)c5CO4)cs3)CC2)c1 [Compound 2-27]?
**A.** control value (Test 1) [1]: 100; control value (Test 2) [2]: 100; control value (Test 3) [3]: 100

**Q.** CS(=O)(=O)Oc1ccc(I)c2c1COC(c1csc(C3CCN(C(=O)Cn4nc(C(F)F)cc4C(F)F)CC3)n1)OC2 (stereo not drawn) [Compound 1-130] was tested. Which “control value (Test 1)” value [1] did it give?
**A.** 100

**Q.** And the “control value (Test 2)” value [2]?
**A.** 100

**Q.** What about the “control value (Test 3)” value [3] of the same compound?
**A.** 100

**Q.** Which results are given for CS(=O)(=O)Oc1ccc([N+](=O)[O-])c2c1COC(c1csc(C3CCN(C(=O)Cc4cc(Cl)ccc4Cl)CC3)n1)OC2 (stereo not drawn) [Compound 2-34]?
**A.** control value (Test 1) [1]: 90; control value (Test 2) [2]: 100; control value (Test 3) [3]: 100

**Q.** Cc1ccc(C)c(CC(=O)N2CCC(c3nc(C4OCc5ccccc5CO4)cs3)CC2)c1 [Compound 2-11] was tested. Which “control value (Test 1)” value [1] did it give?
**A.** 100

**Q.** And the “control value (Test 2)” value [2]?
**A.** 100

**Q.** What about the “control value (Test 3)” value [3] of the same compound?
**A.** 100

**Q.** What does the source list for Cc1cc(C(F)(F)F)nn1CC(=O)N1CCC(c2nc(C3OCc4cc5ccccc5cc4CO3)cs2)CC1 [Compound 1-10, 4-[4-(1,5-dihydro-3H-2,4-naphthodioxepin-3-yl)-2-thiazolyl]-1-[2-[5-methyl-3-(trifluoromethyl)-1H-pyrazole-1-yl]acetyl]piperidine]?
**A.** control value (Test 1) [1]: 100; control value (Test 2) [2]: 100; control value (Test 3) [3]: 100

**Q.** For Cc1cc(C(F)(F)F)nn1CC(=O)N1CCC(c2nc(C3OCc4ccccc4C(C)O3)cs2)CC1 (stereo not drawn) [Compound 1-18], which “control value (Test 1)” value [1] is on record?
**A.** 100

**Q.** And the “control value (Test 2)” value [2]?
**A.** 100

**Q.** What about the “control value (Test 3)” value [3] of the same compound?
**A.** 100

**Q.** With Cc1cc(C(F)(F)F)nn1CC(=O)N1CCC(c2nc(C3OCc4c(Cl)ccc(OS(C)(=O)=O)c4CO3)cs2)CC1 (stereo not drawn) [Compound 1-102] as the compound, how does the “control value (Test 1)” value [1] read?
**A.** 100

**Q.** What about the “control value (Test 2)” value [2] of the same compound?
**A.** 100

**Q.** What about the “control value (Test 3)” value [3] of the same compound?
**A.** 100

**Q.** For O=C(Cn1nc(C(F)F)cc1C(F)F)N1CCC(c2nc(C3OCc4ccc(F)cc4CO3)cs2)CC1 (stereo not drawn) [Compound 1-80], which “control value (Test 1)” value [1] is on record?
**A.** 100

**Q.** And the “control value (Test 2)” value [2]?
**A.** 100

**Q.** And the “control value (Test 3)” value [3]?
**A.** 100

**Q.** How did the “control value (Test 1)” value [1] turn out when Cc1cc2c(cc1C)COC(c1csc(C3CCN(C(=O)Cn4nc(C(F)(F)F)cc4C)CC3)n1)OC2 [Compound 1-4] was run?
**A.** 100

**Q.** And the “control value (Test 2)” value [2]?
**A.** 100

**Q.** What about the “control value (Test 3)” value [3] of the same compound?
**A.** 100

**Q.** What does the source list for Cc1cc(C)n(CC(=O)N2CCC(c3nc(C4OCc5cccc(OS(C)(=O)=O)c5CO4)cs3)CC2)n1 (stereo not drawn) [Compound 1-105]?
**A.** control value (Test 1) [1]: 100; control value (Test 2) [2]: 100; control value (Test 3) [3]: 100

**Q.** COc1ccc(C)c2c1COC(c1csc(C3CCN(C(=O)Cn4nc(C(F)(F)F)cc4C(F)(F)F)CC3)n1)OC2 (stereo not drawn) [Compound 1-134] was tested. Which “control value (Test 1)” value [1] did it give?
**A.** 100

**Q.** What about the “control value (Test 2)” value [2] of the same compound?
**A.** 100

**Q.** And the “control value (Test 3)” value [3]?
**A.** 100

**Q.** Which results are given for CCS(=O)(=O)Oc1cccc2c1COC(c1csc(C3CCN(C(=O)Cn4nc(C(F)(F)F)cc4C)CC3)n1)OC2 (stereo not drawn) [Compound 1-7]?
**A.** control value (Test 1) [1]: 100; control value (Test 2) [2]: 100; control value (Test 3) [3]: 100

**Q.** CS(=O)(=O)Oc1cccc2c1COC(c1csc(C3CCN(C(=O)CON=CC(F)(F)F)CC3)n1)OC2 (stereo not drawn) [Compound 3-6] was tested. Which “control value (Test 1)” value [1] did it give?
**A.** 100

**Q.** What about the “control value (Test 2)” value [2] of the same compound?
**A.** 100

**Q.** And the “control value (Test 3)” value [3]?
**A.** 100

**Q.** With Cc1cc(C(F)(F)F)nn1CC(=O)N1CCC(c2nc(C3OCc4cccc(OS(=O)(=O)c5ccccc5)c4CO3)cs2)CC1 (stereo not drawn) [Compound 1-48] as the compound, how does the “control value (Test 1)” value [1] read?
**A.** 100

**Q.** And the “control value (Test 2)” value [2]?
**A.** 100

**Q.** And the “control value (Test 3)” value [3]?
**A.** 100
